In patent publication US6740497B2, “Method and apparatus for detecting cancerous cells using molecules that change electrophoretic mobility” (The Regents of the University of California, priority 1998, dated 2004):
Peptide text beside a SMILES is read from it. * marks the point of attachment. 5FAM = O=C1OC2(c3ccc(O)cc3Oc3cc(O)ccc32)c2ccc(C(=O)*)cc21

Key:
RBL cell = experiment: Intracellular side reactions (degradation/modification) of the Fl-sPKC reporter in a microinjected RBL cell; format: cell-based, rat; details: 200 μM Pefabloc present, with or without PMA, FIGS. 2B and 2C
Experimental: In the measurements illustrated by FIG. 2A-C, prior to mounting on the microscope stage for microinjection and analysis at room temperature (20°-23° C.), each cell chamber 199 was treated by addition of 10 μl of 10 mM Pefabloc (Boehringer-Mannheim, Indianapolis, Ind.) in buffer A with gentle manually pipetted mixing using a Pipetman® (Rainin, Woburn, Mass.).
This yielded a final Pefabloc concentration of 200 μM. Pefabloc is a soluble, physiologically tolerated, inhibitor of serine proteases, a subset of intracellular enzymes that tend to degrade peptides. Pefabloc was included to minimize intracellular degradation of Fl-sPKC. […]
In the measurements illustrated by FIGS. 2A-C, Fl-sPKC was diluted in buffer B, a physiologically compatible intracellular buffer composed of 10 mM Hepes and 140 mM KCl, at pH 7.4. […] The cells 46 that had been successfully microinjected were identified by visual observation of internal Calcium Orange epi-fluorescence through a set of TRITC filters (Chroma Technology Corp., Brattleboro, Vt.) (not shown, but included in the microscope 12) to minimize photodestruction of the fluorescein moiety on Fl-sPKC. […]
Clearly activation of an intracellular kinase by a potent pharmacologic activator can be measured by this approach. Furthermore, both electrophoretograms in FIGS. 2B and 2C show the presence of peaks that cannot be readily identified. […]

protein kinase C (PKC) [1] = experiment: Net intracellular PKC activity in single RBL cells: microinjected Fl-sPKC reporter, laser lysis, capillary electrophoresis, laser-induced fluorescence; format: cell-based, rat; details: RBL cell
Experimental: FIGS. 2A-C and 3A-C are two sets of graphs of three stacked electrophoretograms of reporter substrate molecule separations all made under identical electrophoretic conditions on the same day. In the first embodiment, illustrated by FIGS. 2A-C and FIGS. 3A-C, rat basophilic leukemia (RBL) cells, from the tumor mast cell line RBL-2H3, were used. These cells were grown at 37° C. and 5% CO2 in Dulbecco's modified eagle medium (DMEM) supplemented with 10% fetal bovine serum, and L-glutamine ([…]). Penicillin (100 units/ml) and streptomycin (100 μg/ml) were added to the media to inhibit bacterial growth. […] The cells 46 were plated at concentrations determined empirically to produce approximately one cell per 100× field of view on the day of the measurement. […]
In the first embodiment, the microscopy system of FIG. 9 used for cell lysis was similar to that described previously in the incorporated application entitled “Fast Controllable Laser Lysis of Cells for Analysis”. The frequency-doubled Q-switched Nd:YAG laser 18 (Minilite II, Continuum, Santa Clara, Calif.; Minilase II-20, New Wave Research, Sunnyvale, Calif.) was used to generate a single pulse (1-25 μJ, 5-ns pulse width, 532 nm) directed into a fluorescence microscope 12 (Axiovert 135, Zeiss, Thornwood, N.Y.). […]

protein kinase C (PKC) [2] = experiment: Time course of intracellular Fl-sPKC phosphorylation by PKC in single NIH/3T3 cells (laser lysis, capillary electrophoresis); format: cell-based, murine; details: 100 nM PMA, 5 minute time point, room temperature, FIG. 12
protein kinase C (PKC) [3] = experiment: Intracellular Fl-sPKC phosphorylation by PKC in single Xenopus laevis oocytes (PERT CE sampling, MEKC); format: cell-based
Experimental: Oocytes 46′ were surgically obtained from pigmented or albino Xenopus laevis frogs and were cultured as described previously. Oocytes 46′ were microinjected by means of an injector mounted on a low power dissecting microscope (not shown) with 50 nl of reporter substrate peptide (0.5-200 μM) in buffer B, and then incubated for 30 min to permit diffusion of the peptide through the oocyte 46′. For measurements, oocytes 46′ were placed in buffer C (96 mM NaCl, 2 mM KCl, 1.8 mM CaCl2, 1 mM MgCl2, 5 mM Hepes, pH 7.6). When LPA (1-oleoyl-2-hydroxy-sn-glycero-3-phosphate, Avanti Polar Lipids, Alabaster, Ala.) was added to the oocytes 46′, fatty acid-free bovine serum albumen (5%) was used as a carrier as described previously.
All samples from the oocytes 46′ were obtained and electrophoresed by a method referred to as piezoelectric sampling/rapid translation/capillary electrophoresis (PERT CE). The apparatus used for PERT CE is illustrated in FIGS. 8A-B. FIGS. 8A and 8B are diagrammatic depictions of the components of the apparatus used to make measurements of intracellular enzyme activity from single Xenopus laevis oocytes 46′. […] The holder is part of a complete apparatus for automatically sampling oocyte cytoplasm and rapidly subjecting this sample to electrophoresis before any substantial change in the substrate molecules can occur. This is achieved by providing a sharpened electrophoresis capillary 22 attached to a high speed translation system to plunge the capillary into the cell to capture a plug of cytoplasm. Then the capillary is automatically withdrawn from the oocyte and rapidly moved to make electrical contact with a reservoir 134 of electrophoresis buffer so that electrophoresis of the substrate molecules within the “plug” commences before any additional chemical reactions occur.
To obtain cytoplasm, the capillary 22 was driven 60 μm into the oocyte 46′ by the piezoelectric element. […] The capillary 22 was then automatically withdrawn from the cytoplasm. […] Electrophoresis was initiated immediately. […]

side products as share of collected fluorescence (RBL cell)	SMILES	Fl-sPKC peak versus P-Fl-sPKC peak (net PKC activity) (protein kinase C (PKC) [1]; 100 nM PMA, 5 minutes, FIG. 2C)	PKC activation (peaks matching P-Fl-sPKC) (protein kinase C (PKC) [1]; 1 μM PMA for 10 minutes before microinjection of Fl-sPKC and Fl-sPKA, FIG. 11C)	phosphorylation level of Fl-sPKC (protein kinase C (PKC) [2])	collected fluorescence corresponding to P-Fl-sPKC (protein kinase C (PKC) [3]; Xenopus oocyte, 10 μM PMA for 10 minutes, ~10 μM reporter substrate, FIG. 4D)	degree of reporter substrate phosphorylation (protein kinase C (PKC) [3]; Xenopus oocyte, 10 μM PMA for three minutes, FIG. 5)	average rate of Fl-sPKC phosphorylation within oocytes (protein kinase C (PKC) [3]; Xenopus oocytes, 10 μM activator, intermediate time points, FIGS. 6A/6B)
about 50%	CC(C)C[C@H](NC(=O)[C@H](CO)NC(=O)CNC(=O)[C@H](CCCCN)NC(=O)[C@H](CCCNC(=N)N)NC(=O)[C@H](C)NC(=O)[C@H](Cc1ccccc1)NC(=O)[C@H](CCCNC(=N)N)NC(=O)c1ccc2c(c1)C(=O)OC21c2ccc(O)cc2Oc2cc(O)ccc21)C(=O)N[C@@H](CCCNC(=N)N)C(=O)N[C@@H](CCC(N)=O)C(=O)N[C@@H](CCCCN)C(=O)N[C@@H](CC(N)=O)C(=O)N[C@H](C(=O)O)C(C)C [Fl-sPKC, Fl- Arg-Phe-Ala-Arg-Lys-Gly-Ser-Leu-Arg-Gln-Lys-Asn-Val] (5FAM-RFARKGSLRQKNV-OH)	–	–	–	–	–	–
–	CCCCCCCCCCCCCC(=O)O[C@@H]1[C@@H](C)[C@@]2(O)[C@@H](C=C(CO)C[C@]3(O)C(=O)C(C)=C[C@@H]23)[C@@H]2C(C)(C)[C@]12OC(C)=O [PMA, phorbol myristic acid]	nearly equal magnitude	small, but measurable amount of PKC activation	~50%	essentially all collected fluorescence	intermediate degree of reporter substrate phosphorylation	25 ± 15 nM/s
